{"source": "patent US20130316374A1", "about": "“BREAST CANCER DIAGNOSTICS” (IMBA - INSTITUT FUR MOLEKULARE BIOTECHNOLOGIE GMBH, priority 2010, published 2013)", "key": {"mammary epithelial cells": {"test_system": "mammary epithelial cells", "test": "Epithelial proliferation in mammary glands, in situ Ki67 immunostaining", "assay_type": "in vivo, mouse", "experimental": "a, Epithelial proliferation in mammary glands of control littermates and RANK^Δmam females 3 days after sham treatment and MPA implantation. Proliferation was determined by in situ Ki67 immunostaining. b,c, Marked increase of the stem cell-enriched CD24^+CD49^high population (MaSC) in MPA-treated mammary glands in control but not in RANK^Δmam mammary glands. b, Representative FACS profiles showing CD24 and CD49 expression of lineage negative (CD31^− (endothelial cells) CD45^− (hematopoietic cells) […] (erythroid cells)) of mammary MaSCs from MPA- or sham-treated 8-week old virgin females. c, Quantification of MaSC-enriched CD24^+CD49^high population from mammary glands of MPA- or sham-treated virgin RANK^Δmam and littermate control females. For all MaSCs experiments mice were treated with MPA for 3 days. n=4 per group+/−sem. *P<0.05; ***P<0.001 (Student's t-test).\nAt least 1000 mammary gland epithelial cells were counted per mouse. n=3 mice per genotype. **P<0.005; ***P<0.001 (Student's t-test). b, Quantification of in situ Ki67 immunostained cells per acinus from mammary glands of control littermate and RANK^Δmam females on day 3 after MPA s.c. implantation. […] At least 1000 cells were counted per mammary gland. n=3 per genotype. In b, and c, data are shown as percentage of acini/ducts with low (<20% of epithelial cells are Ki67^+), medium (20-80% of epithelial cells are Ki67^+) and high (>80% of epithelial cells are Ki67^+) numbers of proliferating cells+/−sem. ***P<0.001; *P<0.03 (Student's t-test). d, Epithelial proliferation in mammary glands of control littermates and RANK^Δmam females 1 day after i.p. injection of PBS or RANKL (1 μg). Proliferation was determined in situ Ki67 immunostaining. Magnifications ×40. e, Quantification of epithelial proliferation 1 day after i.p. injection of PBS or RANKL (1 μg). Mean percentages of Ki67 positive cells+/−sem are shown. *P<0.03; n=5 (Student's t-test).\nFor histological analysis, 5 μm sections were cut and stained with hematoxylin and eosin (H&E). Whole-mount staining of mammary glands was performed as described. For immunoperoxidase staining paraffin-embedded sections were […] and antigenic epitopes exposed using a 10 mM citrate buffer or microwaving. Sections were incubated with antibodies to cytokeratine 5, cytokeratine 14, E-cadherin, anti-Ki67 (Novocastra) and anti-active Caspase 3 (Cell Signaling) and visualized using peroxidase-conjugated secondary antibodies. Histomorphometric indices (proliferation and apoptosis) were calculated as the number of positive epithelial cells divided by the total number of epithelial cells, with no fewer than 1000 nuclei for Ki67 stainings and no fewer than 5000 cells for active Caspase 3 staining counted per section.\nRecently it has been reported that endogenous progesterone affects the numbers of Lin-CD24+CD49f^hi stem cells during pregnancy^15 and the estrous cycle^16. In both studies, the RANKL/RANK system was implicated based on in vivo whole body Ab blocking studies and RT-PCR expression, however, it was not known whether this is a direct effect of RANKL-RANK in mammary epithelial cells rather than a secondary effect. Therefore it was assayed whether progestins such as MPA can also expand Lin-CD24+CD49f^hi cells."}, "[1]": {"test_system": "human SKBR3 breast cancer cells", "test": "Western blotting of RANKL/RANK downstream signaling in SKBR3 cells", "assay_type": "cell-based", "conditions": "RANKL stimulation (1 μg/ml)", "experimental": "a, Western blotting for phosphorylated (P) p65 NFκB, total p65 NFκB, phosphorylated (P) IκBα, total IκBα, phosphorylated (P) ERK1/2, total ERK1/2, phosphorylated (P) p38-MAPK, and p38-MAPK in human SKBR3 breast cancer cells in response to RANKL stimulation (1 μg/ml). Data are representative of 3 experiments. b, Growth curve of SKBR3 breast cancer cells cultured in normal growth medium (control, DMEM supplemented with 10% FCS) or in the presence of RANKL (1 μg/ml). Cell numbers were determined by counting live cells (trypan blue-exclusion) over 3 days. c, Onset of palpable mammary tumors in NFATc1^Δmam (n=10) and age matched littermate control (n=16) females treated with MPA pellets and DMBA. Data are shown as percentage of tumor free mice after the last DMBA challenge. No significant difference was found. d, Quantification of NFATc1 mRNA expression in purified mammary epithelial cells (MECs) and MPA-driven mammary tumors from NFATc1^Δmam and littermate control females. mRNA was determined by qRT-PCR. Data are shown as fold change compared to control (+/−sem). n=5 Per group. *P<0.05 (Student's t-test).\nThe human epithelial breast tumor cell line SKBR3 and primary non-transformed mouse mammary epithelial cells were left untreated or stimulated with recombinant murine RANKL^ref. 9. Adenocarcinomas were isolated from control and mutant mice and total protein lysates prepared. […]"}}, "data": [{"molecule": "CC(=O)O[C@]1(C(C)=O)CC[C@H]2[C@@H]3C[C@H](C)C4=CC(=O)CC[C@]4(C)[C@H]3CC[C@@]21C", "note": "[MPA, medroxyprogesterone acetate]", "values": [{"measurement": "MPA-induced proliferation of mammary epithelial cells", "setting": "mammary epithelial cells; RANK^Δmam females", "result": "significantly reduced"}, {"measurement": "acini with very low proliferation rates (Ki67)", "setting": "mammary epithelial cells; RANK^Δmam females, day 3 after MPA s.c. implantation", "result": "more than 60%"}, {"measurement": "acini with signs of medium to high proliferation (Ki67)", "setting": "mammary epithelial cells; control females, day 3 after MPA s.c. implantation", "result": "~80", "unit": "%"}, {"measurement": "proliferation of mammary epithelial cells", "setting": "mammary epithelial cells; wild type population, MPA treatment", "result": "triggers massive proliferation of mammary epithelial cells"}]}, {"molecule": "RANKL: Receptor Activator of NF-κB Ligand; recombinant murine RANKL used for stimulation (protein, UniProt O35235 139-316, looked up) Tumor necrosis factor ligand …: FSGAPAMMEGSWLDVAQRGKPEAQPFAHLTINAASIPSGSHKVTLSSWYHDRGWAKISNMTLSNGKLRVNQDGFYYLYANICFRHHETSGSVPTDYLQLMVYVVKTSIKIPSSHNLMKGGSTKNWSGNSEFHFYSINVGGFFKLRAGEEISIQVSNPSLLDPDQDATYFGAFKVQDID", "values": [{"measurement": "proliferation of mammary gland epithelial cells", "setting": "mammary epithelial cells; nulliparous females, 1 day after i.p. injection of RANKL (1 μg)", "result": "triggered proliferation of mammary gland epithelial cells"}, {"measurement": "NFκB, p38-MAPKs and ERK activation", "setting": "[1]", "result": "induced NFκB, p38-MAPKs and ERK activation"}]}]}
